Results on one sequence are retold here after patent publication US12622953B2, “Vaccines targeting neoepitopes” (Evaxion Biotech A/S, priority 2019, dated 2026).

For this assay, the system named is neo-peptide specific CD8+ T cells. In words: MHC I multimer staining of whole blood after i.p. immunization. The class given is in vivo, BALB/c mice. The note with it: endpoint day 28, 2.0 μg C22 i.p. How it is done:
6-8 weeks old BALB/c JrJ femal mice were acquired from Janvier Labs. The mice were acclimated for one week before initiation of the experiment. The mice had ad libitum access to water and standard chow pellets. The experiment was conducted under license 2017-15-0201-01338 from the Danish Animal Experimentation Inspectorate in accordance with the Danish Animal Experimentation Act, which is stricter and therefore fully compliant with the European directive (2010/63/EU). The mice were ear tagged to allow for identification of individuals.
To avoid “cage effects” all treatment groups were represented in each cage. Mice in groups 1, 2, 3 and 4 (the cluster immunization groups) were intraperitoneally (i.p.) immunized at day 0, 1, 2, 3, 7, 14 and 21 with 0.4, 2.0, 10.0 and 50.0 μg of C22 admixed with CAF09b, respectively. Corresponding groups (5, 6, 7 and 8) were vaccinated according to a traditional prime-boost strategy on days 0, 14 and 21 with solutions identical to what group 1, 2, 3 and 4 received. Dosing volumes for the mice were 200 μl for all vaccines.
The C22 peptide was synthesised by GenScript and aliquoted into 0.8 mg portions as a lyophilized product. The peptide was solubilized in DMSO to a concentration of 10 mg/ml by adding 80 μl DMSO to each aliquot. The peptide stock was then diluted 10 times in sterile water (80 μl peptide stock+720 μl sterile water). […]

Entries after “also recorded” stand apart in the source; their conditions may differ.

On to “QIETQQRKFKASRASILSEMKMLKEKR (listed as Mus musculus) [Peptide C22]”, for which the “MHC:C22 positive CD8+ T cells in blood” value (cluster primed) is “low-frequency MHC:C22 positive CD8+ T cells were detected; also recorded: small increase”. Besides, the “neo-peptide specific CD8+ cells in blood” value (standard prime-boost schedule) is “hardly any”.
